US9999222B2, “Herbicidal combination comprising azines” (BASF SE, priority 2014, dated 2018)

Columns and labels:
Assay in all cases: Greenhouse test, post-emergence treatment
Settings in all cases: application rate 0.5 kg/ha, scale 0 to 100
[1] = system: ABUTH; format: in vivo, Abutilon theophrasti
From the text: (§1) The culture containers used were plastic flowerpots containing loamy sand with approximately 3.0% of humus as the substrate. The seeds of the test plants were sown separately for each species.
(§2) For the post-emergence treatment, the test plants were first grown to a height of […], depending on the plant habit, and only then treated with the active ingredients which had been suspended or emulsified in water. For this purpose, the test plants were either sown directly and grown in the same containers, or they were first grown separately as seedlings and transplanted into the test containers a few days prior to treatment.
(§3) Depending on the species, the plants were kept at 10-25° C. or 20-35° C., respectively.
(§4) The test period extended over 2 to 4 weeks. During this time, the plants were tended, and their response to the individual treatments was evaluated.
(§5) Evaluation was carried out using a scale from 0 to 100. 100 means no emergence of the plants, or complete destruction of at least the aerial moieties, and 0 means no damage, or normal course of growth. A moderate herbicidal activity is given at values of at least 60, a good herbicidal activity is given at values of at least 70, and a very good herbicidal activity is given at values of at least 85.

[2] = system: ECHCG; format: in vivo, Echinocloa crus-galli
From the text: as §1, §2, §3, §4, §5

[3] = system: AMARE; format: in vivo, Amaranthus retroflexus
From the text: as §1, §2, §3, §4, §5

CC(c1nc(N)nc(Nc2c(F)c(F)cc(F)c2F)n1)C1CC1 (stereo not drawn) [Example 5, 6-(1-cyclopropylethyl)-N4-(2,3,5,6-tetrafluorophenyl)-1,3,5-triazine-2,4-diamine]
herbicidal activity [1]: very good herbicidal activity (a very good herbicidal activity is given at values of at least 85) | herbicidal activity [2]: very good herbicidal activity (a very good herbicidal activity is given at values of at least 85) | herbicidal activity [3]: very good herbicidal activity (a very good herbicidal activity is given at values of at least 85)
